Test results: ChEMBL document CHEMBL1201862, “PubChem BioAssay data set” (2004)
Values belong to the compound of their own block, whether it stands above or below them. The source made the active and inactive calls.

Assays:
[1] = blockade of melanocortin 4 receptor signaling – cell-based, plate reader, cherry pick, counter-screen for LGR2 antagonist project, dose response (AID 743444); assay type: functional;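 note: transfected HEK 293 cells stimulated with alpha-MSH peptide; potency of inhibitors of the alpha-MSH evoked signal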
[2] = toxicity toward HepG2 liver cells – cell-based, plate reader, cherry-pick, antagonist series, cytotoxicity control, dose response (AID 743416); assay type: functional
[3] = blockers of bursicon-stimulated LGR2 cAMP reporter – cell-based, HEK293, CRE-luciferase reporter, cherry pick, set 2, dose response (AID 743343); assay type: functional;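 note: transfected cells were stimulated with diluted bursicon conditioned medium after compound addition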
[4] = target: T1, Corticotropin-releasing factor receptor 2/Corticotropin-releasing factor-binding protein (Homo sapiens, UniProt P24387+Q13324); test: Dose Response confirmation of uHTS hits for small molecule antagonists of the CRF-binding protein and CRF-R2 receptor complex.; assay type: functional; settings: read-out: IC50_Mean
T1 sequence (Q13324 whole entry): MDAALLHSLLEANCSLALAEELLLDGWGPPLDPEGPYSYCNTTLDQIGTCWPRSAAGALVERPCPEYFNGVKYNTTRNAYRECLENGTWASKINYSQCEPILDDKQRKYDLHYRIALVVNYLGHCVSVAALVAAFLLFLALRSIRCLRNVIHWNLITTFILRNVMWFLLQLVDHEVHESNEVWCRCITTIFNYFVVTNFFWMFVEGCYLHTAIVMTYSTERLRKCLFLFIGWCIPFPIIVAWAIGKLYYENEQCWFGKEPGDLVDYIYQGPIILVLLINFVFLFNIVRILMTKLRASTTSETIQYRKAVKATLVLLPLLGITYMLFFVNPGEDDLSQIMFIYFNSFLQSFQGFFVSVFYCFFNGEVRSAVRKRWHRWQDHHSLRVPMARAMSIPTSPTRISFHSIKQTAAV
T1 sequence (P24387 whole entry): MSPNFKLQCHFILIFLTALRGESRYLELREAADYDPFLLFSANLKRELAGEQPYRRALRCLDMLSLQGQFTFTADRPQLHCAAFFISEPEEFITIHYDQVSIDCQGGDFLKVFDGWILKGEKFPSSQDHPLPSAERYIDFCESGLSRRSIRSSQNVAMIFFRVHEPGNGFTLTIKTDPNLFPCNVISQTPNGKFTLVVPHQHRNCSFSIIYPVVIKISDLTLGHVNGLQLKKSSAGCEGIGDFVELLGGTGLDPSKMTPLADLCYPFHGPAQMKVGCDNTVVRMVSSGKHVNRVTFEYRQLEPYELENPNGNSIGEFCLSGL

[5] = target: T1, Corticotropin-releasing factor receptor 2/Corticotropin-releasing factor-binding protein; test: activators of CRF receptor 2 with binding protein – uHTS hits, confirmation (AID 602473); assay type: functional; settings: read-out: EC50_Mean
[6] = blockers of CRF-binding protein–CRF-R2 complex – cell-based, uHTS hits, 384-well, dose response (AID 651639); assay type: functional, Homo sapiens; settings: read-out: IC50_Mean
[7] = target: T2, DNA repair protein RAD52 homolog (Homo sapiens, UniProt P43351); assay type: functional, biochemical
T2 sequence (P43351 whole entry): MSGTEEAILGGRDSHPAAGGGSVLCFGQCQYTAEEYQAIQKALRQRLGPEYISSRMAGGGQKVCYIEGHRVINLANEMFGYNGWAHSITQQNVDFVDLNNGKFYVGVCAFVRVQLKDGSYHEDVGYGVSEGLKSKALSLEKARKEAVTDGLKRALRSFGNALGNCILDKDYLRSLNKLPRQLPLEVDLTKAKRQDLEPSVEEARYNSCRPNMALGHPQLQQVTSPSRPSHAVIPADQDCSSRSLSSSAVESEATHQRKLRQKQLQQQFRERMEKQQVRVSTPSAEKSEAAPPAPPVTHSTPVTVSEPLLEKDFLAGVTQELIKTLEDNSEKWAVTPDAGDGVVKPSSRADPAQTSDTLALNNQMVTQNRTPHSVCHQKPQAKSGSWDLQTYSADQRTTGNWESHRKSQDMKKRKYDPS

[8] = target: T3, Ubiquitin-conjugating enzyme E2 N (Homo sapiens, UniProt P61088); assay type: functional;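 note: Dose-response confirmation in a TR-FRET assay detecting UBC13-driven polyubiquitin chain formation, inhibition measured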
T3 sequence (P61088 whole entry): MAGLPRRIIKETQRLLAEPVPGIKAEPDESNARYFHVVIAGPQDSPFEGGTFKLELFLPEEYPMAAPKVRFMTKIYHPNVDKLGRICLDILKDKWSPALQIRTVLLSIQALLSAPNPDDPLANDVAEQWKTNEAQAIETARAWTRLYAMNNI

Galanin receptor type 3 = target: T4, Galanin receptor type 3 (Homo sapiens, UniProt O60755); test: Fluorescence-based cell-based primary high throughput dose response assay to identify antagonists of the Galanin Receptor 3 (GalR3).; assay type: functional
T4 sequence (O60755 whole entry): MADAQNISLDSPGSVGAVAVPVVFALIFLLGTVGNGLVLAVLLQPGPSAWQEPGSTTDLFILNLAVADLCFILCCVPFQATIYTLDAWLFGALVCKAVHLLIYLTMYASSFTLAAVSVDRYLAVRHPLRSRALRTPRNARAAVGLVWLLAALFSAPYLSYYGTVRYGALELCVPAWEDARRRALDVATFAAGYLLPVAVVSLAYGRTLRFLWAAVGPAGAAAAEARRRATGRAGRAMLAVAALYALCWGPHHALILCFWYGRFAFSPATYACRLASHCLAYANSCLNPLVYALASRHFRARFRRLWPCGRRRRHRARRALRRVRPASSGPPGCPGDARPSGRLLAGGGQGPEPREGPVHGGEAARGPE

cells = assay type: functional, cell-based; settings: HEK-CNG
[9] = target: T5, Carboxy-terminal domain RNA polymerase II polypeptide A small phosphatase 1 (Homo sapiens, UniProt Q9GZU7); test: CTDSP1 inhibitors, concentration-response, biochemical, absorbance readout, ultra-high-throughput screen actives (AID 540297); assay type: functional
T5 sequence (Q9GZU7 whole entry): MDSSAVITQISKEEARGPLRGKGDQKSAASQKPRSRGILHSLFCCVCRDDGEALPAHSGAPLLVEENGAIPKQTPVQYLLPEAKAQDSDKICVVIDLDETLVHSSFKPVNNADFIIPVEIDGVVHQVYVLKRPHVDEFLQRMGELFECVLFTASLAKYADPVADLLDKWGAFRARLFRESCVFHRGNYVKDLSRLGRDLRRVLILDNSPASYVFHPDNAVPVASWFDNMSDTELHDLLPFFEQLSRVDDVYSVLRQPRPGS

[10] = target: Photoreceptor-specific nuclear receptor (Homo sapiens, UniProt Q9Y5X4); assay type: functional, cell-based;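 note: CHO-S cells with Gal4-NCOR and VP16-NR2E3 two-hybrid luciferase reporter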
Photoreceptor-specific nuclear receptor, sequence (Q9Y5X4 whole entry, the tested form may be a part): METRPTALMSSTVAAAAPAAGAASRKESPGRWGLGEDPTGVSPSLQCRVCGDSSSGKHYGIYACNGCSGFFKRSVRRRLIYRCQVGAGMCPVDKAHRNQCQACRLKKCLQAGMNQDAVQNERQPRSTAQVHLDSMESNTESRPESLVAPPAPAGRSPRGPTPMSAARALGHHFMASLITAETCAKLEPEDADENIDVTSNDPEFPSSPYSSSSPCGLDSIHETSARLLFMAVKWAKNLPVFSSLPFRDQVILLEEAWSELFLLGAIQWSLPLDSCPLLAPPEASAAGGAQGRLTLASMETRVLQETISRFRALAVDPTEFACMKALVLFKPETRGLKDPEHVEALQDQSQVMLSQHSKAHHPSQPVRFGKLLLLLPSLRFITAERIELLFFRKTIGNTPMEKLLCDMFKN

[11] = target: T6, Heat shock factor protein 1 (Mus musculus, UniProt P38532); test: decrease of HSF1-responsive luciferase luminescence – cell-based, NIH3T3, dose retest, confirmation (AID 2382); assay type: functional;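 note: NIH3T3 fibroblasts with HSF1-driven luciferase reporter stressed by proteasome inhibitor MG132; luminescence from HSF1-driven luciferase expression after 8 hours of MG132 stress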
T6 sequence (P38532 whole entry): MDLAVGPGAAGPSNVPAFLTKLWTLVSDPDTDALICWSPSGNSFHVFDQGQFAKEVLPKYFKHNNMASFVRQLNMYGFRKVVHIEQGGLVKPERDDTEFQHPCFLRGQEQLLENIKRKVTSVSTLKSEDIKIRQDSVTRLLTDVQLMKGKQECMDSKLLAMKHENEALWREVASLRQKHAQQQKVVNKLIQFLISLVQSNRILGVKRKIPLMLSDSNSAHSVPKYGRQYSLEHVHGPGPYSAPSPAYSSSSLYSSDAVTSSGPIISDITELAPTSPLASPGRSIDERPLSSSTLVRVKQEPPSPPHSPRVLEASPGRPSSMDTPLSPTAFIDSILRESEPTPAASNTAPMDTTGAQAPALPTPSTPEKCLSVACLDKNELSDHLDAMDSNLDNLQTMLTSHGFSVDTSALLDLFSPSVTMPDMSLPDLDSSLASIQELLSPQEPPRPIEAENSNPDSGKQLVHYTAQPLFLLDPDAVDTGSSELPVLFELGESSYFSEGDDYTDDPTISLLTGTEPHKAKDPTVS

HEK293 = test: EBV LMP1 TES2 canonical NF-kB signalling blockers – cell-based, HEK293, luciferase, cherry-pick, dose response (AID 588343); assay type: functional; settings: Homo sapiens
[12] = A549 cell cytotoxicity, dose response, cytotoxicity control, plate reader, cherry-pick, antagonist series (AID 743412); assay type: functional, cell-based
INS1 = test: INS-1E survival protection against cytokine death – cell-based, luminescence, retest, dose response (AID 449756); assay type: functional; settings: Rattus norvegicus;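 note: cell death triggered by IL-1 beta plus TNF-alpha plus IFN-gamma mixture; protective hits raise ATP signal compared with cytokine alone wells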

SMILES: O=C(O)c1cccc(-c2noc(-c3cccc(Cl)c3)n2)c1
AC50 [1]: 7.56 µM (active)
AC50 [2]: > 52 µM (inactive)
AC50 [3]: 5.67 µM (active)

SMILES: COCC1CCCN(C(=O)c2cc(COc3ccc4ncccc4c3)on2)C1 (configuration not stated)
IC50 (Galanin receptor type 3): 1.3 µM (active)
EC50 (cells): > 29.9 µM (inactive)

SMILES: CC(C)(C)c1ccc(Cn2c(=O)cnc3ccccc32)cc1
EC50 [11]: 2.27 µM (active)
AC50 (HEK293): 6.93 µM (active)
AC50 [2]: 29.4 µM (active)
AC50 [12]: 12.6 µM (active)
AC50 [3]: 38 µM (active)

SMILES: CCCOc1ccc(CSc2nc3ccccc3[nH]2)cc1
IC50 [10]: 4.25 µM (active)
IC50 (Galanin receptor type 3): 2.27 µM (active)
AC50 (INS1): 3.73 µM (active)
EC50 (cells): > 29.9 µM (inactive)

SMILES: C=CCC1(CC=C)CCCN1C(=O)c1cc(COc2cncc(Cl)c2)on1
IC50 (Galanin receptor type 3): > 1.11 µM (active)
EC50 (cells): > 29.9 µM (inactive)

Other lines, results leading:

IC50 [4]: 27.4 µM (active)
EC50 [5]: > 53 µM (inactive)
IC50 [6]: 8.63 µM (active)
SMILES: O=C(COc1cc(Cl)ccc1Cl)N1CCNC1=O

AC50 [7]: 17.3 µM (active)
IC50 [8]: > 20 µM (inactive)
IC50 [4]: 2.82 µM (active)
EC50 [5]: 42.3 µM (active)
IC50 [6]: 7.1 µM (active)
SMILES: CC[C@@H](C)[C@@H]1CN([C@@H](CN2CCC[C@H]2CN2C(N)=NC[C@H]2CC(C)C)C(C)C)C(=N)N1CCc1ccc(Cl)c(Cl)c1

IC50 [4]: 23.4 µM (active)
EC50 [5]: > 53 µM (inactive)
IC50 [6]: > 20 µM (inactive)
SMILES: O=C(O)C1OC1(c1ccccc1Cl)c1ccccc1Cl (configuration not stated)

IC50 [9]: 3.84 µM (active)
SMILES: COC(=O)c1cc(NC(=O)Cc2cccs2)cc(C(=O)OC)c1

IC50 [10]: 4.25 µM (active)
SMILES: COCCCNC(=S)N1CCN(c2nc(-c3ccc(Cl)cc3)cs2)CC1

IC50 [4]: 14.6 µM (active)
EC50 [5]: > 53 µM (inactive)
IC50 [6]: 13.5 µM (active)
SMILES: COc1ccc(S(=O)(=O)N2CCCCCC2)cc1C(=O)N(C)Cc1ccc(C(C)(C)C)cc1
